Assay results published in paper PMC10610105, “Designing and Exploration of the Biological Potentials of Novel Centrosymmetric Heteroleptic Copper(II) Carboxylates” (Pharmaceuticals, 2023).
Converted amounts (≈) assume the structure as drawn.

How the values were obtained:
[1] = system: α-amylase; experiment: α-amylase enzyme inhibition assay; assay type: biochemical, Saccharomyces cerevisiae; conditions: for IC50: α-amylase inhibition
Experimental: A reported protocol with slight modification was used to perform the α-amylase enzyme inhibition assay. A stock solution (1 unit/mL) was prepared by dissolving α-amylase solution from Saccharomyces cerevisiae in 50 mM potassium phosphate buffer (pH 6.8), and for the substrate, in the same buffer 20 mM p-nitrophenyl-α-D-glucopyranoside (PNG) was prepared. The assay was conducted in triplicate using 96-well plates. […] For the experiments, each well contained phosphate buffer 65 μL (50 mM, pH 6.8), PNG 25 μL, α-amylase enzyme 5 μL (0.05 U/mL), and test sample 5 μL. The plates were allowed to incubate at 37 °C for 30 min, followed by the addition of 100 μL sodium bicarbonate (0.5 mM) as a stopping agent.
By using a microplate reader (BioTek Elx-800, Winooski, VT, USA), absorbance was recorded at 405 nm. The percent inhibition was calculated using the formula: %Inhibition=Acontrol−Asample/Acontrol × 100 where Acontrol is the control absorbance and Asample is the sample absorbance.

[2] = DPPH free radical scavenging assay; conditions: for IC50: DPPH radical scavenging, read-out: IC50 (µM) ± SEM; for % Inhibition: DPPH
Experimental: (§1) DPPH and hydroxyl (•OH) radical scavenging assays based on spectroscopic measurements are simple in vitro methods used to evaluate the antioxidant potential of test compounds. The promising results of these assays could be exploited as preliminary tests in search of drugs with potential anticancer, anti-aging, and anti-inflammatory activities. Within this context, the abilities of the free ligand acid (HL) and synthesized complexes (1 and 2) to scavenge DPPH and hydroxyl radicals were determined in order to evaluate their potential antioxidant ability compared to that of vitamin C as a reference compound.
The in vitro DPPH free radical scavenging activities of the free ligand acid and complexes 1 and 2 were assessed, as per a reported procedure with slight modification in the protocol.
Different concentrations (15, 30, 60, 120, and 240 μM) of the free ligand acid and complexes were mixed with 1000 μL of 255 μM DPPH solution made in ethanol. The mixture solutions were shaken and incubated in the dark for 30 min at room temperature. The absorbance of the solutions was measured at 518 nm using a UV-VIS spectrophotometer. Ascorbic acid of fixed concentration was used as a positive control. The readings were made in triplicate. Percentage inhibition of the test compounds was evaluated by using the formula: %scavenging=Ac−As/Ac×100 where Ac and As are the observed absorbance values of the control and the sample, respectively.

[3] = Hydroxyl radical scavenging assay; conditions: for IC50: hydroxyl radical scavenging, read-out: IC50 (µM) ± SEM; for % Inhibition: hydroxyl radical
Experimental: as §1
The hydroxyl radical scavenging activities of the free ligand acid and synthesized complexes (1 and 2) were evaluated according to a reported method. Different concentrations (15, 30, 60, 120, and 240 μM) of the free ligand acid and complexes were mixed with 0.4 M phosphate buffer (pH 6.6) (1000 μL), 0.1% hydrogen peroxide (100 μL), 3.7 mM o-phenanthroline (200 μL), and 7.5 mM ferrous sulfate (100 μL). The mixtures were diluted with distilled water to 3000 μL before incubating for 30 min at room temperature. The absorbance of mixtures was recorded at 510 nm using ascorbic acid as a standard.
The %scavenging was calculated using the following formula: %scavenging=As−Ac/Ab−As×100 where As, Ac, and Ab are the observed absorbance values of the sample, control, and blank, respectively.

[4] = system: SS-DNA (salmon sperm DNA); experiment: DNA binding study by viscometry; conditions: SS-DNA 87.72 μM, compound 5–30 μM, Ostwald viscometer
Experimental: The viscosity of the SS-DNA solution (87.72 μM) in the absence and the presence of complexes 1 and 2 (5–30 μM) was measured using an Ostwald viscometer. For accuracy, the readings were made in triplicate for each sample, and then an average flow rate was calculated. Data are presented as (η/ηo)^1/3 vs. binding ratio ® of [complex]/[DNA], where η is the relative viscosity of the complex-DNA adduct, and ηο is the relative viscosity of DNA alone. The relative viscosity values for SS-DNA in the presence (η) and the absence (ηο) of the complexes were calculated using the relation η = (t − to)/to, where t is the observed flow time in seconds.

[5] = system: SS-DNA (salmon sperm DNA); experiment: DNA binding study by UV-visible absorption spectroscopy; conditions: complex-DNA interaction, calculated
Experimental: UV-visible absorption measurements can be used to monitor changes occurring in λmax values (red or blue shifts) and absorption intensity (hyper- or hypochromism) of either a test compound or DNA as a result of any possible interaction. These changes can be used to find some details about the mode of interaction of metal complexes with DNA [25]. In the present study, absorption titrations were made with a fixed concentration (200 μM) of complexes against varying concentrations (5-30 μM) of SS-DNA. The extent of complex-DNA binding was assessed by calculating intrinsic binding constant (Kb) values using the well-known Benesi-Hildebrand equation [26]. Ao/A-A0=ε[…]+1/Kb[DNA] where Kb is the binding constant, A is the absorbance of complex-DNA adduct, Ao is the absorbance of pure complex solution, [DNA] is the concentration of SS-DNA in mol/L, εH-G is the molar absorption co-efficient of each complex-DNA adduct, and εG is the molar absorption co-efficient of pure complex. […] Ao/A-Ao along the ordinate, as shown in Figure 3B and Figure 4B for complexes 1 and 2, respectively. […] The SS-DNA solution (ε = 6600 M^-1 cm^-1 at 260 nm) concentration was determined via absorption spectroscopy. The complex solutions (200 μM) were made in aqueous DMSO (1:4). […] To eliminate the absorbance of DNA, equivalent SS-DNA solutions were added to the complex and reference solutions. […]

Compound | % α-Amylase Activity ([1]; concentration 31.25 µg/mL) [%] | % α-Amylase Activity ([1]; concentration 62.5 µg/mL) [%] | % α-Amylase Activity ([1]; concentration 125 µg/mL) [%] | % α-Amylase Activity ([1]; concentration 250 µg/mL) [%] | % α-Amylase Activity ([1]; concentration 500 µg/mL) [%] | IC50 [2] [µM] | % Inhibition ([2]; dose conc. 15 µM) [%] | % Inhibition ([2]; dose conc. 30 µM) [%] | % Inhibition ([2]; dose conc. 60 µM) [%] | % Inhibition ([2]; dose conc. 120 µM) [%] | % Inhibition ([2]; dose conc. 240 µM) [%] | IC50 [3] [µM] | % Inhibition ([3]; dose conc. 15 µM) [%] | % Inhibition ([3]; dose conc. 30 µM) [%] | % Inhibition ([3]; dose conc. 60 µM) [%] | % Inhibition ([3]; dose conc. 120 µM) [%] | % Inhibition ([3]; dose conc. 240 µM) [%] | IC50 [1] [µg/mL] | effect on the relative viscosity of the DNA [4] | ΔG [5] [kcal/mol]
C[C@H]1O[C@H](O[C@H]2[C@H](O)[C@@H](O)[C@@H](O[C@H]3[C@H](O)[C@@H](O)C(O)O[C@@H]3CO)O[C@@H]2CO)[C@H](O)[C@@H](O)[C@@H]1N[C@H]1C=C(CO)[C@@H](O)[C@H](O)[C@H]1O (stereo partly shown) [Acrabose, acarbose, reference compound] | 14.34 | 26.42 | 46.39 | 68.61 | 84.33 |  |  |  |  |  |  |  |  |  |  |  |  |  |  | 
O=C(O)Cc1ccc(F)c(F)c1 [HL, 3,4-difluorophenylacetic acid] | 1.72 | 1.9 | 9.22 | 19.67 | 32.95 | 1010 ± 1.99 | 1.09 | 3.05 | 5.07 | 7.77 | 12.55 | 1771 ± 1.17 | 0.009 | 1.050 | 1.070 | 2.770 | 6.660 | 728.17 (≈ 4.23 mM) | no effect | 
O=C1O[C@H]([C@@H](O)CO)C(O)=C1O [Vit. C, ascorbic acid, reference compound] |  |  |  |  |  | 127 ± 14 | 7.09 | 15.09 | 29.98 | 58.09 | 82.35 | 162 ± 12.1 | 6.78 | 10.49 | 16.87 | 43.87 | 70.55 |  |  | 
Cc1ccccn1.Cc1ccccn1.O=C([O-])Cc1ccc(F)c(F)c1.O=C([O-])Cc1ccc(F)c(F)c1.O=C([O-])Cc1ccc(F)c(F)c1.O=C([O-])Cc1ccc(F)c(F)c1.[Cu+2].[Cu+2] [complex 1, [Cu2(3,4-F2C6H3CH2COO)4(2-CH3py)2]] | 6.03 | 7.24 | 22.24 | 41.12 | 51.22 | 214 ± 7.77 | 8.07 | 15.77 | 25.39 | 39.00 | 51.12 | 283 ± 7.01 | 0.05 | 10.00 | 15.04 | 28.32 | 39.99 | 437.73 | pronounced increase | -6.979
Cc1cccnc1.Cc1cccnc1.O=C([O-])Cc1ccc(F)c(F)c1.O=C([O-])Cc1ccc(F)c(F)c1.O=C([O-])Cc1ccc(F)c(F)c1.O=C([O-])Cc1ccc(F)c(F)c1.[Cu+2].[Cu+2] [complex 2, [Cu2(3,4-F2C6H3CH2COO)4(3-CH3py)2]] | 5.33 | 8.33 | 20.46 | 38.00 | 50.30 | 365 ± 5.31 | 4.045 | 5.150 | 14.975 | 21.500 | 32.550 | 308 ± 6.89 | 0.04 | 1.30 | 14.50 | 25.00 | 35.99 | 455.32 | pronounced increase | -7.808
